Read-outs that look alike come from different tables or passages of the source.
Molecular target: T1, FmlHLD (Escherichia coli, UniProt P77588)
T1 construct: 6xHis (C); made in house; host or cells: E. coli C600, periplasm, pTRC99a
Assay: biochemical
Assay type: binding, E. coli
Details: for PI100 (percent inhibition): galactoside at 100 μM
Protocol: Thereafter, wells were incubated with 200 μl blocking buffer (PBS+1% BSA) for 2 hours at 23° C., followed by incubation with 100 μl biotinylated FmlHLD diluted in blocking buffer to 20 μg/ml in the presence or absence of the tested compounds for 1 hr at 23° C. After washing 3× with PBS+0.05% TWEEN-20, 100 μl Streptavidin-HRP conjugate (BD Biosciences; 1:2000 dilution in blocking buffer) was added to each well for 1 hr at 23° C. After a final round of washing, plates were developed with 100 μl Tetramethylbenzidine (TMB, BD Biosciences) substrate, quenched within 1-2 min with 50 μl […], and absorbance measured at 450 nm.
Select top hit compounds and few low-scoring analogs from the virtual screening, as well as synthetic galactosides, were tested in the ELISA-based competition assay for their ability to inhibit binding of FmlHLD to ds-BSM. The ELISA assay was performed using the protocol described in Example 18. […] All compounds were tested at 100 μM; a subset was tested at 10 μM; and the strongest subset was additionally tested at 1 μM. […] Percent inhibition (PI) values are reported as the mean with standard error of the mean for galactosides tested at 100 μM (PI100), 10 μM (PI10), and 1 μM (PI1) in the ELISA-based competition assay. […] The “thio” designation indicates a sulfur linkage between the sugar and the aglycone group, the “phospho” designation indicates a phosphate group attached the C6-hydroxyl group on the sugar, and the “uro” designation indicates galacturonide as the sugar.
The ELISA assay was performed using the protocol described in Example 18. All compounds were tested at 1 μM and a subset was additionally tested at 100 nM. Average percent inhibition (PI) values are reported for compounds tested at 1 μM (PI1) and 100 nM (PI0.1).
Briefly, 1 μg bovine submaxillary mucin (Sigma) in 100 uL PBS were incubated with Immulon 4HBX 96-well plates overnight prior to treatment with 1 mU Arthrobacter ureafaciens sialidase for 1 hour at 37° C. to remove terminal sialic acid sugars. Wells were then blocked with 200 μL PBS+1% BSA for 2 hours at room temperature. Biotinylated FmlH^LD was diluted to 20 μg/mL in blocking buffer and incubated in the presence or absence of compounds serially diluted 2× down eight rows for 1 hour at room temperature. Wells were washed three times with PBS 0.05% TWEEN-20 then incubated with 100 μL of streptavidin-HRP conjugate (BD Biosciences; 1:2,000 dilution in blocking buffer) for one hour. After three additional PBS+0.05% TWEEN washes, plates were developed with 100 μL of tetramethylbenzidine (BD Biosciences) substrate and quenched with 50 μL of 1 M H2SO4. Total bound portion concentration was measured by the absorbance at 450 nm. IC50s were determined using the Graphpad Prism software.
The compounds synthesized herein were tested in the ELISA-based competition assay for their ability to inhibit binding of FmlHLD to ds-BSM. The ELISA assay was performed using the protocol described in Example 18. Compounds were tested at […], 1 μM, and 100 nM. as indicated on the table. […] ND means the corresponding value was not determined for this summary (but may be available elsewhere in the Examples).

[1] = read-out: % Inhibition at [μM] [10], compound at 10 μM, inhibition of FmlHLD binding to ds-BSM
[2] = read-out: % Inhibition at [μM] [100], compound at 100 μM, inhibition of FmlHLD binding to ds-BSM
[3] = IC50, inhibition of FmlHLD binding to ds-BSM
[4] = mean with standard error of the mean, 100 µM
[5] = read-out: PI10 (percent inhibition), galactoside at 10 μM, mean with standard error of the mean
[6] = read-out: PI100 (percent inhibition), galactoside at 100 μM, mean with standard error of the mean
[7] = read-out: % Inhibition at [μM] [1], compound at 1 μM, inhibition of FmlHLD binding to ds-BSM
[8] = read-out: PI(1) (average percent inhibition), compound at 1 μM, Table 4

T1 sequence (P77588 25-182): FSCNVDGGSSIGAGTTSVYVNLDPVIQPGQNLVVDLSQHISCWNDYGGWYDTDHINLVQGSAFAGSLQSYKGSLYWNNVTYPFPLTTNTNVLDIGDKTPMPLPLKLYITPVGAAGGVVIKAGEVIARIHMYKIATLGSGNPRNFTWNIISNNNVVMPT

OC[C@H]1O[C@@H](Oc2cccc(-c3ccccc3)c2)[C@H](O)[C@@H](O)[C@H]1O [Compound 114af2]
inhibition at 10 µM [1]: 7.8% | inhibition at 100 µM [2]: 56.9%

CC(=O)N[C@H]1[C@H](Oc2cccc(C(=O)OCc3ccccc3)c2-c2cccc(NS(C)(=O)=O)c2)O[C@H](CO)[C@H](O)[C@@H]1O [AM2141]
IC50 [3]: 0.18 µM

OC[C@H]1O[C@@H](Oc2cccc(-c3ccccc3)c2)[C@H](O)[C@@H](O)[C@H]1O [Compound 31β, [1,1′-biphenyl]-3-yl α/β-D-galactopyranoside]
PI100 (percent inhibition) [4]: 56.9 ± 6.2% | inhibition at 10 µM [5]: 7.8 ± 5.5% | inhibition at 100 µM [6]: 57%

COC(=O)c1cccc(-c2ccccc2O[C@@H]2O[C@H](CO)[C@H](O)[C@H](O)[C@H]2O)c1 [Compound 30β, 2′-(α/β-D-galactopyranosyloxy)-[1,1′-Biphenyl]-3-carboxylic acid methyl ester]
PI100 (percent inhibition) [4]: 86.6 ± 0.8% | inhibition at 1 µM (read-out: PI1 (percent inhibition), galactoside at 1 μM, mean with standard error of the mean): 3.7 ± 3.5% | inhibition at 10 µM [5]: 22.4 ± 2.6% | inhibition at 100 µM [6]: 87%

N#Cc1ccccc1O[C@@H]1O[C@H](CO)[C@H](O)[C@H](O)[C@H]1O [Compound 137b]
inhibition at 1 µM [7]: 12.1% | inhibition at 10 µM [1]: 30.4% | inhibition at 100 µM [2]: 94.5%

CC(=O)N[C@H]1[C@H](Oc2cccc(C(=O)O)c2-c2cccc(NS(C)(=O)=O)c2)O[C@H](CO)[C@H](O)[C@@H]1O [AM2148]
IC50 [3]: 0.13 µM

COC(=O)Nc1cccc(-c2ccccc2O[C@@H]2O[C@H](CO)[C@H](O)[C@H](O)[C@H]2NC(C)=O)c1 [AM2065, methyl (2′-(((2S,3R,4R,5R,6R)-3-acetamido-4,5-dihydroxy-6-(hydroxymethyl)tetrahydro-2H-pyran-2-yl)oxy)-[1,1′-biphenyl]-3-yl)carbamate]
inhibitory potency against FmlH, in words (ELISA-based competition assay): equal or slightly reduced potency | IC50 (IC50 (μM), Table 5, Gal and GalNAc inhibition of FmlH): 0.63 µM | IC50 [3]: 1.05 µM | inhibition at 0.1 µM (read-out: % Inhibition at [μM] [0.1], compound at 0.1 μM (100 nM), inhibition of FmlHLD binding to ds-BSM): 0% | inhibition at 1 µM [7]: 45.3% | inhibition at 0.1 µM (read-out: PI (0.1) (average percent inhibition), compound at 100 nM, Table 4): 0% | inhibition at 1 µM [8]: 45.3%

CC(=O)N[C@H]1[C@H](Oc2cccc3cc4ccccc4nc23)O[C@H](CO)[C@H](O)[C@@H]1O [AM2003, N-((2S,3R,4R,5R,6R)-2-(acridin-4-yloxy)-4,5-dihydroxy-6-(hydroxymethyl)tetrahydro-2H-pyran-3-yl)acetamide]
inhibition at 1 µM [7]: 15.4% | inhibition at 1 µM [8]: 15.4%

OC[C@H]1O[C@H](Oc2cccc(-c3ccccc3)c2)[C@H](O)[C@@H](O)[C@H]1O [Compound 31α, [1,1′-biphenyl]-3-yl α/β-D-galactopyranoside]
inhibition at 100 µM [6]: 45.6 ± 2.5%

CC(=O)N[C@H]1[C@H](Oc2ccccc2-c2cc(NS(=O)(=O)C(F)(F)F)ccc2F)O[C@H](CO)[C@H](O)[C@@H]1O [AM2116]
IC50 [3]: 3.07 µM

Nc1ccc(O[C@@H]2O[C@H](CO)[C@H](O)[C@H](O)[C@H]2O)cc1 [Compound 10β]
PI100 (percent inhibition) [4]: 65.1 ± 1.4% | inhibition at 10 µM [5]: 9.8 ± 3.9% | inhibition at 100 µM [6]: 65%

CC(=O)N[C@H]1[C@@H](Oc2ccc([N+](=O)[O-])cc2)O[C@H](CO)[C@H](O)[C@@H]1O[C@@H]1O[C@H](CO)[C@H](O)[C@H](O)[C@H]1O [Compound 33, p-nitrophenyl Gal-β1-3-GalNAc, reference compound]
PI100 (percent inhibition) (mean with standard error of the mean): 15.3 ± 3.1%

CC(=O)N[C@H]1[C@H](Oc2ccc([N+](=O)[O-])cc2)O[C@H](CO)[C@@H](O)[C@@H]1O[C@@H]1O[C@H](CO)[C@H](O)[C@H](O)[C@H]1O [Gal-b1-3-PNPGlcNAc, reference compound]
% Inhibition at [μM] [100] (compound at 100 μM, inhibition of FmlHLD binding to ds-BSM): −3.60%

CC(=O)N[C@H]1[C@H](Oc2cccc(F)c2-c2cccc(NS(C)(=O)=O)c2)O[C@H](CO)[C@H](O)[C@@H]1O [AM2109]
IC50 [3]: 0.151 µM

Cc1ccc(O[C@@H]2O[C@H](CO)[C@H](O)[C@H](O)[C@H]2O)cc1 [Compound 153a]
inhibition at 1 µM [7]: 4.59% | inhibition at 10 µM [1]: 16.5% | inhibition at 100 µM [2]: 85.8%

Cc1ccccc1O[C@H]1O[C@H](CO)[C@H](O)[C@H](O)[C@H]1O [Compound 135a]
inhibition at 100 µM [2]: 30%

CC(=O)N[C@H]1[C@H](Oc2cccc(C(F)(F)F)c2-c2cccc(NS(C)(=O)=O)c2)O[C@H](CO)[C@H](O)[C@@H]1O [AM2134]
IC50 [3]: 0.085 µM

Reference: patent US11773127B2, “Compounds and methods for treating bacterial infections” (Washington University, priority 2017, dated 2023)
